Source: publication PMC7898037, “Improving mitochondria and ER stability helps eliminate upper motor neuron degeneration that occurs due to mSOD1 toxicity and TDP‐43 pathology” (Clinical and Translational Medicine, 2021)

Experiments:
[1] = test system: UMNs in the motor cortex of hSOD1^G93A‐UeGFP mice; assay: UMN quantification in motor cortex, hSOD1^G93A‐UeGFP mice; format: in vivo; conditions: for Mean, Fig. 5E (UMN quantification in motor cortex): hSOD1G93A-UeGFP mice; for average number of UMNs per section in the motor cortex: hSOD1^G93A‐UeGFP mice
Procedure: (§1) hSOD1^G93A‐UeGFP, prpTDP‐43^A315T‐UeGFP and WT‐UeGFP mice were weighed and the required NU‐9 dose per weight was calculated (20 or 100 mg/kg), which was administered once daily by oral gavage, starting at postnatal day (P)60 and continuing until P120. Animals from the untreated group received the vehicle (NMP and olive oil) only. For oral administration purposes, 20 ga × 38 mm plastic feeding tubes were used (Instech Laboratories, Inc). The gavage tip was inserted into the mouth directly over the tongue and into the pharynx. While observing the swallowing reflex, the tip was safely and smoothly slid into the esophagus. Once the administration was completed, the gavage tip was pulled straight out.
Since UMNs are genetically labeled with eGFP expression in the motor cortex of WT‐UeGFP, hSOD1^G93A‐UeGFP, and prpTDP‐43^A315T‐UeGFP mice, UMNs were identified based on the GFP expression. Quantitative analyses were performed on three matched rostrocaudal sections spanning the motor cortex. Three images per subject were taken to capture a 4× objective filed that encompass layer 5 of the motor cortex. An inverted epifluorescent Eclipse TE2000‐E microscope (Nikon) with the same exposure time and intensity was used. UMNs were counted only if their soma and apical dendrite were both visualized in the same 50‐µm thick section. Images were analyzed in ImageJ (NIH) using the Find maxima processing command to determine the local maxima within a predetermined region of interest that circumscribes the layer 5 of the motor cortex. A universal noise tolerance, which ignores the local maxima corresponding to background and autofluorescence, was applied to all images.

[2] = test system: UMNs of prpTDP‐43^A315T‐UeGFP mice; assay: EM quantification of mitochondria and ER in UMNs, prpTDP‐43^A315T‐UeGFP mice; format: in vivo
Procedure: as §1
Mice were perfused with EM grade 4% PFA. One hemisphere of the brain was sectioned at 50 µm thickness coronally on a vibratome (Leica VT1000S, Leica Inc., Nussloch, Germany). The sections were postfixed in 2% PFA and 0.5% glutaraldehyde for 1 h, they were cryoprotected with glycerol–dimethylsulfoxide (DMSO) mixture followed by freeze–thaw at least four times, and treated with 1% sodium borohydride. They were then treated with 0.3% H2O2–10% methanol in TBS (100 mM Tris–HCl and 150 mM NaCl, pH 7.6) and 5% normal goat serum–1% bovine serum albumin in TBS to block nonspecific binding of primary antibody. This mixture was incubated overnight with rat anti‐Ctip2 antibody (1:500, Thermo Fisher Scientific, Rockford, IL, USA). Biotinylated goat anti‐rat IgG (1:500, Vector Laboratories, Burlingame, CA, USA) was used as the secondary antibody, and diaminobenzidine (DAB) was applied as the chromogen (ABC Elite kit, Vector Laboratories, Burlingame, CA, USA). Sections were then postfixed in buffered 2% osmium tetroxide (OsO4) (Electron Microscopy Sciences, Hatfield, PA, USA), rinsed with distilled water, and stained in 1% uranyl acetate (Electron Microscopy Sciences, Hatfield, PA, USA), again rinsed with distilled water, dehydrated in ascending grades of ethanol with transition fluid propylene oxide (Electron Microscopy Sciences, Hatfield, PA, USA), embedded in the resin mixture with Embed 812 (Electron Microscopy Sciences, Hatfield, PA, USA), and cured in a 60°C oven for 3 days. The sections in which primary motor cortex was present and visible under bright‐field illumination on a dissecting scope were selected. Approximately, 5‐mm‐wide × 7‐mm‐long pieces of the motor cortex from these sections were dissected under the microscope mounted on a resin block and were sectioned on a Leica Ultracut UC6 ultramicrotome (Leica Inc., Nussloch, Germany). The motor cortex was further trimmed, and only layer 5 was kept intact for preparing ultrathin sections. UMNs were identified based on the presence of Ctip2 immunohistochemistry (DAB) in their nuclei (Figure S1). Seventy‐nanometer‐thin sections were collected on 200‐mesh copper–palladium grids. Grids were counterstained with 8% radioactive depleted uranyl acetate and 0.2% lead citrate. Grids were examined on FEI Tecnai Spirit G2 TEM (FEI company, Hillsboro, OR, USA), and digital images were captured on a FEI Eagle camera.
EM images of Betz cells of normal control and patients, Ctip2‐positive (Ctip2^+) UMN of WT, and hSOD1^G93A‐UeGFP and prpTDP‐43^A315T‐UeGFP mice (Figure S1) were acquired from 70‐nm ultrathin sections of the motor cortex, and EM images were taken on FEI Tecnai Spirit G2 TEM using FEI Eagle camera. Mitochondria were quantified, as described previously. ^34 Mitochondria with intact outer and inner membrane and with intact cristae were considered healthy. Mitochondria with morphological defects, such as broken outer and/or inner membrane and cristae, were counted individually and were reported as percentage of defective mitochondria. ER that are disintegrated and that display profound expansion were considered unhealthy. Length of ER cisternae was measured using line tool of ImageJ software (NIH) upon calibration for pixels/micrometer using set scale function. […]

[3] = prpTDP-43A315T-UeGFP mice, NU-9 100 mg/kg/day
[4] = prpTDP-43A315T-UeGFP untreated minus NU-9 100 mg/kg/day, Tukey's multiple comparisons test
[5] = prpTDP‐43^A315T‐UeGFP mice, 100 mg/kg/day oral gavage P60–P120

C[C@H](Oc1cc(C(F)(F)F)cc(C(F)(F)F)c1)C1CC(=O)CC(=O)C1 [NU‐9]
Mean, Fig. 5E (UMN quantification in motor cortex) ([1]; NU-9 20 mg/kg/day): 21.06 | Mean, Fig. 5E (UMN quantification in motor cortex) ([1]; NU-9 100 mg/kg/day): 46.43 | Mean Diff., Fig. 5E, GS Vehicle vs. GS NU-9 (20) ([1]; hSOD1G93A-UeGFP vehicle minus NU-9 20 mg/kg/day, Tukey's multiple comparisons test): -16.12 | Mean Diff., Fig. 5E, GS Vehicle vs. GS NU-9 (100) ([1]; hSOD1G93A-UeGFP vehicle minus NU-9 100 mg/kg/day, Tukey's multiple comparisons test): -41.49 | average number of UMNs per section in the motor cortex ([1]; 20 mg/kg/day oral gavage P60–P120): 21 ± 5 UMN | average number of UMNs per section in the motor cortex ([1]; 100 mg/kg/day oral gavage P60–P120): 46 ± 3 UMN | Mean Diff., Fig. 6J, TDP-43 vs. TDP-43 -NU9 ([2]; prpTDP43A315T-UeGFP untreated minus NU-9 100 mg/kg/day, Tukey's multiple comparisons test): -0.8333 | Fig. 6G group mean (total number of mitochondria/UMN) ([2]; prpTDP-43A315T-UeGFP (NU-9 100 mg/kg/day)): 31.85 | Mean, Fig. 6H (EM quantification in UMNs) [2, 3]: 86.77 | Mean, Fig. 6I (EM quantification in UMNs) [2, 3]: 31.16 | Mean, Fig. 6J (EM quantification in UMNs) [2, 3]: 1.37 | Mean Diff., Fig. 6H, TDP-43 vs. TDP-43 -NU9 [2, 4]: -64.89 | Mean Diff., Fig. 6I, TDP-43 vs. TDP-43 -NU9 [2, 4]: -18.7 | average number of intact ER cisternae in UMNs [2, 5]: 36 ± 2 ER cisternae/UMN/section | average percentage of healthy mitochondria [2, 5]: 87% ± 1% | total mitochondria per UMN per section [2, 5]: 32 ± 3 mitochondria/UMN/section
